# From patent EP0620225B1, “Cephalosporin derivatives” (Basilea Pharmaceutica AG, priority 1993, dated 1994)
# Tests used:
# X.maltophilia 1AC739 = assay: Antibacterial spectrum (MIC), agar dilution; type: cell-based; details: Stenotrophomonas maltophilia, read-out: MIC
# Description: (§1) In vitro activity was determined by minimum inhibitory concentration in a microorganism spectum by the agar dilution method in Mueller Hinton agar.
# S.viridans group 016 = assay: Antibacterial spectrum (MIC), agar dilution; type: cell-based; details: Streptococcus viridans, read-out: MIC
# Description: as §1
# C.freundii 43 = assay: Antibacterial spectrum (MIC), agar dilution; type: cell-based; details: Citrobacter freundii, read-out: MIC
# Description: as §1
# E.faecalis 6 = assay: Antibacterial spectrum (MIC), agar dilution; type: cell-based; details: Enterococcus faecalis, read-out: MIC
# Description: as §1
# P.vulgaris 1028 = assay: Antibacterial spectrum (MIC), agar dilution; type: cell-based; details: Proteus vulgaris, read-out: MIC
# Description: as §1
# Acinetobacter sp.51-156 = assay: Antibacterial spectrum (MIC), agar dilution; type: cell-based; details: SP.51156, read-out: MIC
# Description: as §1
# E.cloacae 908SSi = assay: Antibacterial spectrum (MIC), agar dilution; type: cell-based; details: Enterobacter cloacae, read-out: MIC
# Description: as §1
# H.influenzae 1 = assay: Antibacterial spectrum (MIC), agar dilution; type: cell-based; details: Haemophilus influenzae, read-out: MIC
# Description: as §1
# C.freundii 902 = assay: Antibacterial spectrum (MIC), agar dilution; type: cell-based; details: Citrobacter freundii, read-out: MIC
# Description: as §1
# S.aureus 734 MRSA = assay: Antibacterial spectrum (MIC), agar dilution; type: cell-based; details: Staphylococcus aureus, read-out: MIC
# Description: as §1
# E.cloacae 908R = assay: Antibacterial spectrum (MIC), agar dilution; type: cell-based; details: Enterobacter cloacae, read-out: MIC
# Description: as §1
# S.aureus 6538 = assay: Antibacterial spectrum (MIC), agar dilution; type: cell-based; details: Staphylococcus aureus, read-out: MIC
# Description: as §1
# S.marcescens 69438 = assay: Antibacterial spectrum (MIC), agar dilution; type: cell-based; details: Serratia marcescens, read-out: MIC
# Description: as §1
# M.morganii 6H-137 = assay: Antibacterial spectrum (MIC), agar dilution; type: cell-based; details: Morganella morganii, 6H137, read-out: MIC
# Description: as §1
# E.coli 25922 = assay: Antibacterial spectrum (MIC), agar dilution; type: cell-based; details: Escherichia coli, read-out: MIC
# Description: as §1
# K.pneumoniae 418 = assay: Antibacterial spectrum (MIC), agar dilution; type: cell-based; details: Klebsiella pneumoniae, read-out: MIC
# Description: as §1
# P.mirabilis 2117 = assay: Antibacterial spectrum (MIC), agar dilution; type: cell-based; details: Proteus mirabilis, read-out: MIC
# Description: as §1
# N.meningitidis 69480 = assay: Antibacterial spectrum (MIC), agar dilution; type: cell-based; details: Neisseria meningitidis, read-out: MIC
# Description: as §1
# S.pyogenes B15 = assay: Antibacterial spectrum (MIC), agar dilution; type: cell-based; details: Streptococcus pyogenes, read-out: MIC
# Description: as §1
# P.aeruginosa 27853 = assay: Antibacterial spectrum (MIC), agar dilution; type: cell-based; details: Pseudomonas aeruginosa, read-out: MIC
# Description: as §1
# S.pneumoniae Q19 = assay: Antibacterial spectrum (MIC), agar dilution; type: cell-based; details: Streptococcus pneumoniae, read-out: MIC
# Description: as §1
# M.catarrhalis RA21 = assay: Antibacterial spectrum (MIC), agar dilution; type: cell-based; details: Moraxella catarrhalis, read-out: MIC
# Description: as §1
# S.agalactiae QK44 = assay: Antibacterial spectrum (MIC), agar dilution; type: cell-based; details: Streptococcus agalactiae, read-out: MIC
# Description: as §1
# S.viridans group = assay: In vitro activity against selected species (MIC50, MIC90, range); type: cell-based; details: Streptococcus viridans
# S.aureus MSSA = assay: as above; type: cell-based; details: Staphylococcus aureus, medium MHB (Mueller Hinton Broth)
# E.faecium = assay: In vitro activity against selected species (MIC50, range); type: cell-based; details: Enterococcus faecium, medium MHA
# Description: as §1
# S.pneumoniae PEN-R = assay: In vitro activity against selected species (MIC50, MIC90, range); type: cell-based; details: Streptococcus pneumoniae; for MIC: MIC range
# M.catarrhalis = assay: as above; type: cell-based; details: Moraxella catarrhalis, medium IsoB
# S.aureus MRSA = assay: as above; type: cell-based; details: Staphylococcus aureus, medium MHA (Mueller Hinton Agar) +NaCl
# Description: as §1
# E.faecalis [1] = assay: as above; type: cell-based; details: Enterococcus faecalis, medium MHA
# Description: as §1
# E.faecalis [2] = assay: as above; type: cell-based; details: Enterococcus faecalis, medium IsoB
# Escherichia coli 25922 = assay: Efficacy against systemic infections (septicemia) in mice; type: in vivo; details: 96 h, Escherichia coli 25922, po (orally) 1 and 3 h after challenge, survival day 4
# Description: Septicemia was induced in outbred Swiss albino mice (Jbm MoRo [specific pathogen free]; weight 16 to 20 g, Biomedical Research Laboratories, Füllinsdorf, Switzerland). Mice were infected by intraperitoneal injection of diluted overnight cultures of the test organisms. Bacterial challenge doses were 4-10 times the number of organisms required to kill 50% of untreated animals within 48 h. The test compounds were administered p.o. or s.c. 1 and 3 h after the bacterial challenge. To treat the infection with Pseudomonas aeruginosa BA an additional dose was given 5 h after challenge. Control and treatment groups at each dose were composed of five mice each. The 50% effective dose (ED50, in milligrams per kilogram) was calculated by probit analysis as described by Finney (Finney, D.J. 1978, Statistical method in biological assay, 3rd ed. Charles Griffin & Co., Ltd., London), from the survival rates on day 4 after infection.
# L.monocytogenes BK23 = assay: Antibacterial spectrum (MIC), agar dilution; type: cell-based; details: Listeria monocytogenes, read-out: MIC
# Description: as §1
# [3] = medium IsoB (Isosensitest Broth)
structure (smiles),measurement,setting,value
CC(C)(C)N1CC/C(=C\C2=C(C(=O)O)N3C(=O)[C@@H](NC(=O)/C(=N\O)c4csc(N)n4)[C@H]3SC2)C1=O [J],MIC,X.maltophilia 1AC739,> 32 µg/mL
same,MIC,S.viridans group 016,1 µg/mL
same,MIC,C.freundii 43,4 µg/mL
same,MIC,E.faecalis 6,2 µg/mL
same,MIC,P.vulgaris 1028,0.5 µg/mL
same,MIC,Acinetobacter sp.51-156,> 32 µg/mL
same,MIC,E.cloacae 908SSi,2 µg/mL
same,MIC,H.influenzae 1,0.25 µg/mL
same,MIC,C.freundii 902,0.5 µg/mL
same,MIC,S.aureus 734 MRSA,16 µg/mL
same,MIC,E.cloacae 908R,8 µg/mL
same,MIC,S.aureus 6538,1 µg/mL
same,MIC,S.marcescens 69438,1 µg/mL
same,MIC,M.morganii 6H-137,0.25 µg/mL
same,MIC,E.coli 25922,0.5 µg/mL
same,MIC,K.pneumoniae 418,1 µg/mL
same,MIC,P.mirabilis 2117,0.12 µg/mL
same,MIC,N.meningitidis 69480,0.12 µg/mL
same,MIC,S.pyogenes B15,< 0.06 µg/mL
same,MIC,P.aeruginosa 27853,> 32 µg/mL
same,MIC,S.pneumoniae Q19,0.12 µg/mL
same,MIC,M.catarrhalis RA21,16 µg/mL
same,MIC,S.agalactiae QK44,0.25 µg/mL
same,MIC50,S.viridans group,2 µg/mL
same,MIC90,S.viridans group,4 µg/mL
same,MIC,S.viridans group; MIC range,0.12 to 8 µg/mL
same,MIC,S.aureus MSSA; MIC range,0.5 to 2 µg/mL
same,MIC50,S.aureus MSSA,1 µg/mL
same,MIC90,S.aureus MSSA,2 µg/mL
same,MIC,E.faecium; MIC range,2 to 32 µg/mL
same,MIC50,E.faecium,4 µg/mL
same,MIC,S.pneumoniae PEN-R; [3],0.12 to 0.5 µg/mL
same,MIC,S.pneumoniae PEN-R; medium IsoB + 20% serum,0.1 to 1 µg/mL
same,MIC50,S.pneumoniae PEN-R; [3],0.25 µg/mL
same,MIC90,S.pneumoniae PEN-R; [3],0.5 µg/mL
same,MIC50,S.pneumoniae PEN-R; medium IsoB + 20% serum,0.5 µg/mL
same,MIC,M.catarrhalis; MIC range,2 to 32 µg/mL
same,MIC50,M.catarrhalis,8 µg/mL
same,MIC90,M.catarrhalis,16 µg/mL
same,MIC,S.aureus MRSA; MIC range,16 to 32 µg/mL
same,MIC50,S.aureus MRSA,32 µg/mL
same,MIC90,S.aureus MRSA,32 µg/mL
same,MIC,E.faecalis [1]; MIC range,1 to 8 µg/mL
same,MIC50,E.faecalis [1],2 µg/mL
same,MIC90,E.faecalis [1],4 µg/mL
same,MIC,E.faecalis [2]; MIC range,0.5 to 4 µg/mL
same,MIC50,E.faecalis [2],2 µg/mL
same,MIC90,E.faecalis [2],2 µg/mL
same,ED50,Escherichia coli 25922,> 2 mg/kg
"C=CCN1CC/C(=C\C2=C(C(=O)O)N3C(=O)[C@@H](NC(=O)/C(=N\O)c4csc(N)n4)[C@H]3SC2)C1=O [L, [6R-[3(E),6α,7β(Z)]]-3-[[1-Allyl-2-oxo-3-pyrrolidinylidene]methyl]-7-[[(2-amino-4-thiazolyl)(hydroxyimino)acetyl]amino]-8-oxo-5-thia-1-azabicyclo[4.2.0]oct-2-ene-2-carboxylic acid]",MIC,X.maltophilia 1AC739,> 32 µg/mL
same,MIC,S.viridans group 016,1 µg/mL
same,MIC,C.freundii 43,4 µg/mL
same,MIC,E.faecalis 6,2 µg/mL
same,MIC,P.vulgaris 1028,2 µg/mL
same,MIC,Acinetobacter sp.51-156,16 µg/mL
same,MIC,E.cloacae 908SSi,0.25 µg/mL
same,MIC,H.influenzae 1,0.5 µg/mL
same,MIC,C.freundii 902,≤ 0.06 µg/mL
same,MIC,S.aureus 734 MRSA,16 µg/mL
same,MIC,E.cloacae 908R,16 µg/mL
same,MIC,S.aureus 6538,1 µg/mL
same,MIC,S.marcescens 69438,1 µg/mL
same,MIC,M.morganii 6H-137,≤ 0.06 µg/mL
same,MIC,E.coli 25922,≤ 0.06 µg/mL
same,MIC,K.pneumoniae 418,0.12 µg/mL
same,MIC,P.mirabilis 2117,≤ 0.06 µg/mL
same,MIC,N.meningitidis 69480,≤ 0.06 µg/mL
same,MIC,S.pyogenes B15,≤ 0.06 µg/mL
same,MIC,L.monocytogenes BK23,4 µg/mL
same,MIC,P.aeruginosa 27853,16 µg/mL
same,MIC,S.pneumoniae Q19,≤ 0.06 µg/mL
same,MIC,M.catarrhalis RA21,8 µg/mL
same,MIC,S.agalactiae QK44,0.25 µg/mL
"N#CCN1CC/C(=C\C2=C(C(=O)O)N3C(=O)[C@@H](NC(=O)/C(=N\O)c4csc(N)n4)[C@H]3SC2)C1=O [M, [6R-[3(E),6α,7β(Z)]]-7-[[(2-Amino-4-thiazolyl)(hydroxyimino)acetyl]-amino]-3-[[1-cyanomethyl-2-oxo-3-pyrrolidinylidene]methyl]-8-oxo-5-thia-1-azabicyclo[4.2.0]oct-2-ene-2-carboxylic acid]",MIC,X.maltophilia 1AC739,> 32 µg/mL
same,MIC,S.viridans group 016,1 µg/mL
same,MIC,C.freundii 43,8 µg/mL
same,MIC,E.faecalis 6,1 µg/mL
same,MIC,P.vulgaris 1028,8 µg/mL
same,MIC,Acinetobacter sp.51-156,8 µg/mL
same,MIC,E.cloacae 908SSi,1 µg/mL
same,MIC,H.influenzae 1,0.5 µg/mL
same,MIC,C.freundii 902,0.25 µg/mL
same,MIC,S.aureus 734 MRSA,4 µg/mL
same,MIC,E.cloacae 908R,16 µg/mL
same,MIC,S.aureus 6538,1 µg/mL
same,MIC,S.marcescens 69438,4 µg/mL
same,MIC,M.morganii 6H-137,≤ 0.06 µg/mL
same,MIC,E.coli 25922,≤ 0.06 µg/mL
same,MIC,K.pneumoniae 418,0.12 µg/mL
same,MIC,P.mirabilis 2117,≤ 0.06 µg/mL
same,MIC,N.meningitidis 69480,≤ 0.06 µg/mL
same,MIC,S.pyogenes B15,≤ 0.06 µg/mL
same,MIC,L.monocytogenes BK23,4 µg/mL
same,MIC,P.aeruginosa 27853,8 µg/mL
same,MIC,S.pneumoniae Q19,≤ 0.06 µg/mL
same,MIC,M.catarrhalis RA21,8 µg/mL
same,MIC,S.agalactiae QK44,0.25 µg/mL
"Nc1nc(/C(=N/O)C(=O)N[C@@H]2C(=O)N3C(C(=O)O)=C(/C=C4\CCN(CC5CC5)C4=O)CS[C@H]23)cs1 [N, [6R-[3(E),6α,7β(Z)]]-7-[[(2-Amino-4-thiazolyl)(hydroxyimino)acetyl]-amino]-3-[[1-cyclopropylmethyl-2-oxo-3-pyrrolidinylidene]methyl]-8-oxo-5-thia-1-azabicyclo[4.2.0]oct-2-ene-2-carboxylic acid]",MIC,X.maltophilia 1AC739,> 32 µg/mL
same,MIC,S.viridans group 016,1 µg/mL
same,MIC,C.freundii 43,4 µg/mL
same,MIC,E.faecalis 6,1 µg/mL
same,MIC,P.vulgaris 1028,0.25 µg/mL
same,MIC,Acinetobacter sp.51-156,16 µg/mL
same,MIC,E.cloacae 908SSi,1 µg/mL
same,MIC,H.influenzae 1,0.25 µg/mL
same,MIC,C.freundii 902,0.12 µg/mL
same,MIC,S.aureus 734 MRSA,8 µg/mL
same,MIC,E.cloacae 908R,8 µg/mL
same,MIC,S.aureus 6538,0.5 µg/mL
same,MIC,S.marcescens 69438,0.5 µg/mL
same,MIC,M.morganii 6H-137,≤ 0.06 µg/mL
same,MIC,E.coli 25922,≤ 0.06 µg/mL
same,MIC,K.pneumoniae 418,0.12 µg/mL
same,MIC,P.mirabilis 2117,≤ 0.06 µg/mL
same,MIC,N.meningitidis 69480,0.25 µg/mL
same,MIC,S.pyogenes B15,≤ 0.06 µg/mL
same,MIC,L.monocytogenes BK23,4 µg/mL
same,MIC,P.aeruginosa 27853,16 µg/mL
same,MIC,S.pneumoniae Q19,≤ 0.06 µg/mL
same,MIC,M.catarrhalis RA21,8 µg/mL
same,MIC,S.agalactiae QK44,0.5 µg/mL
